Measurements published in article PMC3072374, “Evolution of Vertebrate Transient Receptor Potential Vanilloid 3 Channels: Opposite Temperature Sensitivity between Mammals and Western Clawed Frogs” (PLoS Genetics, 2011).
Values belong to the compound of their own block, whether it stands above or below them.

Legend:
[1] = biological target: T1, western clawed frog TRPV3 (Xenopus tropicalis, UniProt A0A7D9NMJ5); assay: two-electrode voltage clamp in Xenopus laevis oocytes, dose-response; format: cell-based
T1 construct: full-length native channel, 773 residues, cDNA cloned from toe RNA into pGEMHE; cRNA injected into Xenopus laevis oocytes; homotetramer (known biology)
T1 sequence (A0A7D9NMJ5 1-773): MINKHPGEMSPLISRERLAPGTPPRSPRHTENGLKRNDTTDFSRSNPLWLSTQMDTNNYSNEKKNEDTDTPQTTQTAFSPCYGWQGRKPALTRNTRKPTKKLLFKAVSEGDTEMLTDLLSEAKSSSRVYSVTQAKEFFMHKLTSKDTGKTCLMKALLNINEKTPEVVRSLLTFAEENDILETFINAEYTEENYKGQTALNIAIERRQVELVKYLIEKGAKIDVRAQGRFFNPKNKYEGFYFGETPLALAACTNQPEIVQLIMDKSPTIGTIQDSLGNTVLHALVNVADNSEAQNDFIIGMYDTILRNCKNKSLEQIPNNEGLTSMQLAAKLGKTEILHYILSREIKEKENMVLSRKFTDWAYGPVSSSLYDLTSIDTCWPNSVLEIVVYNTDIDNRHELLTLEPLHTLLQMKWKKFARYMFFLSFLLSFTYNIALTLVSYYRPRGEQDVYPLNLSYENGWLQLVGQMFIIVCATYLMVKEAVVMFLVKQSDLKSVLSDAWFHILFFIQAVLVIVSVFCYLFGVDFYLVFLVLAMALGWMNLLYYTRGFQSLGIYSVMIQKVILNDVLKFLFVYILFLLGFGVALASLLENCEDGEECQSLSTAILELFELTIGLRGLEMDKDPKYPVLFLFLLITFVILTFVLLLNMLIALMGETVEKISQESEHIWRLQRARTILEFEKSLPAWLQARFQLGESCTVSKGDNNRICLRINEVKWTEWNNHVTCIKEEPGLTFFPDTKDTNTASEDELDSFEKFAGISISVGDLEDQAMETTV

mouse TRPV3 = biological target: T2, mouse TRPV3 (Mus musculus, UniProt Q8K424); assay: two-electrode voltage clamp in Xenopus laevis oocytes; format: cell-based; details: agonist
T2 construct: full-length channel from pcDNA3 subcloned into pOX+; cRNA injected into Xenopus laevis oocytes; homotetramer (known biology)
T2 sequence (Q8K424 1-791): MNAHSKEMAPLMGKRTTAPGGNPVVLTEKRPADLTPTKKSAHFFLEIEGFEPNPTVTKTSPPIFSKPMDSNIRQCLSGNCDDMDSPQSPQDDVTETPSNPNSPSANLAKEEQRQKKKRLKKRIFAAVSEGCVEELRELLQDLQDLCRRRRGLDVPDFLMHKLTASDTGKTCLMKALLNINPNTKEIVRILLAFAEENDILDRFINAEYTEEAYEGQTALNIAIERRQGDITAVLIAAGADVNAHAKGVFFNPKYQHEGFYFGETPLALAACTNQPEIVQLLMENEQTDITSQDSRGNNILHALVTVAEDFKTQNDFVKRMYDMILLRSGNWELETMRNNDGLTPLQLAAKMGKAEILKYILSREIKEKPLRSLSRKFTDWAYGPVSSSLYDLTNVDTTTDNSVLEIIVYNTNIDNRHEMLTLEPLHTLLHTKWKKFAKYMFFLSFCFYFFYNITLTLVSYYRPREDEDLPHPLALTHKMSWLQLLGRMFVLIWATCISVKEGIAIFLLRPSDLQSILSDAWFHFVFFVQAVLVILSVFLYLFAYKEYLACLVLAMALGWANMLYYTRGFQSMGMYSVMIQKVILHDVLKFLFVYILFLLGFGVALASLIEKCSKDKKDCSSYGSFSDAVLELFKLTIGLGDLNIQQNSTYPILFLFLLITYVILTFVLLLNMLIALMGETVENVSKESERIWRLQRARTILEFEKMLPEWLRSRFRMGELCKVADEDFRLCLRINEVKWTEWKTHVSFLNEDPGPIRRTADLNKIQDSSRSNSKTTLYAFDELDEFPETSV

EC50 [1]: 540 ± 240 µM
SMILES: NCCOB(c1ccccc1)c1ccccc1 [2-APB]

SMILES: CC12CCC(CC1=O)C2(C)C (stereo not drawn) [camphor]
activation (mouse TRPV3; 8 mM camphor): well known activators of mammalian TRPV3 (Figure 5F and 5G, Right)

SMILES: CC12CCC(CC1)C(C)(C)O2 [eucalyptol]
activation (mouse TRPV3; 10 mM eucalyptol): well known activators of mammalian TRPV3 (Figure 5F and 5G, Right)
